Measured values: patent publication US20260109712A1, “RIFAMYCINS FOR NONTUBERCULOUS MYCOBACTERIA” (priority 2022, published 2026)
Converted amounts (≈) assume the structure as drawn.

Key:
[1] = tested on: M. abscessus ATCC 19977; assay: MIC assay in 96-well plate format, wild-type strain; format: cell-based, Mycobacterium abscessus; settings: for MIC: M. abscessus ATCC 19977, 90% growth inhibition, read-out: WT Mab MIC; for MIC ratio: WT MIC/Δarr strain MIC; for fold loss of potency compared to 5a: MIC against M. abscessus; for MICWT: Table 10
Procedure: (§1) MIC determination was carried out in 96-well plate format as previously described.^[13-14] 96-well plates were initially set up with 100 μL of 7H9 per well. For each compound, a ten-point two-fold dilution series starting at twice the desired highest concentration was dispensed onto the 96-well plates using a Tecan D300e Digital Dispenser, with the DMSO concentration normalized to 2%. M. abscessus culture grown to mid-log phase (OD600=0.4-0.6) was diluted to OD600=0.1 (1×10^7 CFU/mL). […] Untreated control wells are included on each plate that contain bacteria suspension and 1% DMSO. Plates were sealed with parafilm, stored in boxes with wet paper towels and incubated at 37° C. with shaking (110 RPM). Plates were incubated for 3 days. To determine growth, OD600 was measured using a Tecan Infinite M200 plate reader on Day 0 and Day 3. Two biological replicates were performed. Clarithromycin was included in each experiment as a positive control.
(§2) For each well on the 96-well plate, bacterial growth was calculated by subtracting the Day 0 OD600 value from the Day 3 OD600 value. […] For compound-containing wells, percentage growth was calculated by dividing their growth values by the average drug-free bacterial growth for the compound series and multiplying by 100. For each compound series, we plotted percentage growth versus compound concentration.

[2] = tested on: Δarr M. abscessus; assay: MIC assay, isogenic arr-deleted strain; format: cell-based, Mycobacterium abscessus; settings: for Δarr Mab MIC: arr-deleted strain, 90% growth inhibition; for MICΔorr: Table 10
Procedure: as §1, §2

Structure (SMILES): CO[C@H]1/C=C/O[C@@]2(C)Oc3c(C)c(O)c4c(c3C2=O)C2=NC3(CCN(CC(C)C)CC3)NC2=C(NC(=O)/C(C)=C/C=C/[C@H](C)[C@H](O)[C@@H](C)[C@@H](O)[C@@H](C)[C@H](OC(=O)c2ccccc2Cl)[C@@H]1C)C4=O [5f, 25-O-(2-chlorobenzoyl)-25-O-desacetyrifabutin]
- MIC [1]: 0.043 µM (≈ 0.0406 µg/mL)
- MIC ratio [1]: 0.9
- Δarr Mab MIC [2]: 0.049 µM

Structure (SMILES): COc1ccccc1C(=O)O[C@H]1[C@H](C)[C@H](O)[C@H](C)[C@@H](O)[C@@H](C)/C=C/C=C(\C)C(=O)NC2=C3NC4(CCN(CC(C)C)CC4)N=C3c3c(c(O)c(C)c4c3C(=O)[C@@](C)(O/C=C/[C@H](OC)[C@H]1C)O4)C2=O [5g, 25-O-(2-methoxybenzoyl)-25-O-desacetyrifabutin]
- MIC [1]: 0.03 µM (≈ 0.0282 µg/mL)
- MIC ratio [1]: 1.0
- Δarr Mab MIC [2]: 0.03 µM

Structure (SMILES): CO[C@H]1/C=C/O[C@@]2(C)Oc3c(C)c(O)c4c(c3C2=O)C2=NC3(CCN(CC(C)C)CC3)NC2=C(NC(=O)/C(C)=C/C=C/[C@H](C)[C@H](O)[C@@H](C)[C@@H](O)[C@@H](C)[C@H](OC(=O)c2ccccc2C(F)(F)F)[C@@H]1C)C4=O [5h, 25-O-(2-trifluoromethylbenzoyl)-25-O-desacetyrifabutin]
- MIC [1]: 0.1 µM (≈ 0.0977 µg/mL)
- fold loss of potency compared to 5a [1]: 2 fold
- MIC ratio [1]: 0.8
- Δarr Mab MIC [2]: 0.12 µM

Structure (SMILES): CO[C@H]1/C=C/O[C@@]2(C)Oc3c(C)c(O)c4c(c3C2=O)C2=NC3(CCN(CC(C)C)CC3)NC2=C(NC(=O)/C(C)=C/C=C/[C@H](C)[C@H](O)[C@@H](C)[C@@H](O)[C@@H](C)[C@H](OC(=O)c2ccccc2-c2ccccc2)[C@@H]1C)C4=O [5i, 25-O-(2-phenylbenzoyl)-25-O-desacetyrifabutin]
- MIC [1]: 0.26 µM (≈ 0.256 µg/mL)
- fold loss of potency compared to 5a [1]: 5 fold
- MIC ratio [1]: 1.8
- Δarr Mab MIC [2]: 0.14 µM

Structure (SMILES): CCC(CC)C(=O)O[C@H]1[C@H](C)[C@H](O)[C@H](C)[C@@H](O)[C@@H](C)/C=C/C=C(\C)C(=O)NC2=C3NC4(CCN(CC(C)C)CC4)N=C3c3c(c(O)c(C)c4c3C(=O)[C@@](C)(O/C=C/[C@H](OC)[C@H]1C)O4)C2=O [5l]
- MIC [1]: 1.15 µM (≈ 1.04 µg/mL)
- MIC ratio [1]: 23.5
- Δarr Mab MIC [2]: 0.049 µM

Structure (SMILES): CO[C@H]1/C=C/O[C@@]2(C)Oc3c(C)c(O)c4c(c3C2=O)C2=NC3(CCN(CC(C)C)CC3)NC2=C(NC(=O)/C(C)=C/C=C/[C@H](C)[C@H](O)[C@@H](C)[C@@H](O)[C@@H](C)[C@H](OC(=O)c2nccs2)[C@@H]1C)C4=O [5o, 25-O-(2-thiazolecarbonyl)-25-O-desacetyrifabutin]
- MIC [1]: 0.017 µM (≈ 0.0156 µg/mL)
- MIC ratio [1]: 1.0
- Δarr Mab MIC [2]: 0.017 µM

Structure (SMILES): CO[C@H]1/C=C/O[C@@]2(C)Oc3c(C)c(O)c4c(c3C2=O)C2=NC3(CCN(CC(C)C)CC3)NC2=C(NC(=O)/C(C)=C/C=C/[C@H](C)[C@H](O)[C@@H](C)[C@@H](O)[C@@H](C)[C@H](OC(=O)c2cccc(C)c2)[C@@H]1C)C4=O [UMN8]
- MICWT [1]: 0.075 µM
- MICΔorr [2]: 0.065 µM

Structure (SMILES): CO[C@H]1/C=C/O[C@@]2(C)Oc3c(C)c(O)c4c(c3C2=O)C2=NC3(CCN(CC(C)C)CC3)NC2=C(NC(=O)/C(C)=C/C=C/[C@H](C)[C@H](O)[C@@H](C)[C@@H](O)[C@@H](C)[C@H](OC(=O)c2ccc(C)cc2)[C@@H]1C)C4=O [UMN9]
- MICWT [1]: 0.2 µM
- MICΔorr [2]: 0.11 µM

Structure (SMILES): CCC(CC)C(=O)O[C@H]1[C@H](C)[C@H](O)[C@H](C)[C@@H](O)[C@@H](C)/C=C/C=C(\C)C(=O)NC2=C3NC4(CCN(CC(C)C)CC4)N=C3c3c(c(O)c(C)c4c3C(=O)[C@@](C)(O/C=C/[C@H](OC)[C@H]1C)O4)C2=O [UMN17]
- MICWT [1]: 1.15 µM
- MICΔorr [2]: 0.049 µM

Structure (SMILES): CCC(C)C(=O)O[C@H]1[C@H](C)[C@H](O)[C@H](C)[C@@H](O)[C@@H](C)/C=C/C=C(\C)C(=O)NC2=C3NC4(CCN(CC(C)C)CC4)N=C3c3c(c(O)c(C)c4c3C(=O)[C@@](C)(O/C=C/[C@H](OC)[C@H]1C)O4)C2=O (stereo partly shown) [UMN21]
- MICWT [1]: 1.1 µM
- MICΔorr [2]: 0.028 µM

Structure (SMILES): CO[C@H]1/C=C/O[C@@]2(C)Oc3c(C)c(O)c4c(c3C2=O)C2=NC3(CCN(CC(C)C)CC3)NC2=C(NC(=O)/C(C)=C/C=C/[C@H](C)[C@H](O)[C@@H](C)[C@@H](O)[C@@H](C)[C@H](OC(=O)c2ccccc2-c2ccccc2)[C@@H]1C)C4=O [UMN25]
- MICWT [1]: 0.26 µM
- MICΔorr [2]: 0.14 µM

Structure (SMILES): CO[C@H]1/C=C/O[C@@]2(C)Oc3c(C)c(O)c4c(c3C2=O)C2=NC3(CCN(CC(C)C)CC3)NC2=C(NC(=O)/C(C)=C/C=C/[C@H](C)[C@H](O)[C@@H](C)[C@@H](O)[C@@H](C)[C@H](OC(=O)c2ccccc2C(F)(F)F)[C@@H]1C)C4=O [UMN30]
- MICWT [1]: 0.1 µM
- MICΔorr [2]: 0.12 µM

Structure (SMILES): CO[C@H]1/C=C/O[C@@]2(C)Oc3c(C)c(O)c4c(c3C2=O)C2=NC3(CCN(CC(C)C)CC3)NC2=C(NC(=O)/C(C)=C/C=C/[C@H](C)[C@H](O)[C@@H](C)[C@@H](O)[C@@H](C)[C@H](OC(=O)Nc2cccc(-c3ccccc3)c2)[C@@H]1C)C4=O [UMN31]
- MICWT [1]: 0.27 µM
- MICΔorr [2]: 0.43 µM

Structure (SMILES): CO[C@H]1/C=C/O[C@@]2(C)Oc3c(C)c(O)c4c(c3C2=O)C2=NC3(CCN(CC(C)C)CC3)NC2=C(NC(=O)/C(C)=C/C=C/[C@H](C)[C@H](O)[C@@H](C)[C@@H](O)[C@@H](C)[C@H](OC(=O)Nc2ccc(-c3ccccc3)cc2)[C@@H]1C)C4=O [UMN38]
- MICWT [1]: 0.2 µM
- MICΔorr [2]: 0.43 µM

Structure (SMILES): CO[C@H]1/C=C/O[C@@]2(C)Oc3c(C)c(O)c4c(c3C2=O)C2=NC3(CCN(CC(C)C)CC3)NC2=C(NC(=O)/C(C)=C/C=C/[C@H](C)[C@H](O)[C@@H](C)[C@@H](O)[C@@H](C)[C@H](OC(=O)NCc2cc(-c3cccc(-c5ccccc5)c3)no2)[C@@H]1C)C4=O [UMN41]
- MICWT [1]: 0.25 µM
- MICΔorr [2]: 0.34 µM

Structure (SMILES): CO[C@H]1/C=C/O[C@@]2(C)Oc3c(C)c(O)c4c(c3C2=O)C2=NC3(CCN(CC(C)C)CC3)NC2=C(NC(=O)/C(C)=C/C=C/[C@H](C)[C@H](O)[C@@H](C)[C@@H](O)[C@@H](C)[C@H](OC(=O)N2CCN(CC(F)(F)F)CC2)[C@@H]1C)C4=O [UMN54]
- MICWT [1]: 0.13 µM
- MICΔorr [2]: 0.029 µM

Structure (SMILES): CO[C@H]1/C=C/O[C@@]2(C)Oc3c(C)c(O)c4c(c3C2=O)C2=NC3(CCN(CC(C)C)CC3)NC2=C(NC(=O)/C(C)=C/C=C/[C@H](C)[C@H](O)[C@@H](C)[C@@H](O)[C@@H](C)[C@H](OC(=O)N2CCN(CCO)CC2)[C@@H]1C)C4=O [UMN55]
- MICWT [1]: 0.28 µM
- MICΔorr [2]: 0.13 µM

Structure (SMILES): CO[C@H]1/C=C/O[C@@]2(C)Oc3c(C)c(O)c4c(c3C2=O)C2=NC3(CCN(CC(C)C)CC3)NC2=C(NC(=O)/C(C)=C/C=C/[C@H](C)[C@H](O)[C@@H](C)[C@@H](O)[C@@H](C)[C@H](OC(=O)Nc2nc(-c3ccccc3)cs2)[C@@H]1C)C4=O [UMN57]
- MICWT [1]: 0.15 µM
- MICΔorr [2]: 0.25 µM

Structure (SMILES): CO[C@H]1/C=C/O[C@@]2(C)Oc3c(C)c(O)c4c(c3C2=O)C2=NC3(CCN(CC(C)C)CC3)NC2=C(NC(=O)/C(C)=C/C=C/[C@H](C)[C@H](O)[C@@H](C)[C@@H](O)[C@@H](C)[C@H](OC(=O)N2Cc3ccccc3C2)[C@@H]1C)C4=O [UMN65]
- MICWT [1]: 0.11 µM
- MICΔorr [2]: 0.052 µM

Structure (SMILES): CO[C@H]1/C=C/O[C@@]2(C)Oc3c(C)c(O)c4c(c3C2=O)C2=NC3(CCN(CC(C)C)CC3)NC2=C(NC(=O)/C(C)=C/C=C/[C@H](C)[C@H](O)[C@@H](C)[C@@H](O)[C@@H](C)[C@H](OC(=O)N2CCN(C(C)C)CC2)[C@@H]1C)C4=O [UMN66]
- MICWT [1]: 0.17 µM
- MICΔorr [2]: 0.056 µM

Structure (SMILES): CO[C@H]1/C=C/O[C@@]2(C)Oc3c(C)c(O)c4c(c3C2=O)C2=NC3(CCN(CC(C)C)CC3)NC2=C(NC(=O)/C(C)=C/C=C/[C@H](C)[C@H](O)[C@@H](C)[C@@H](O)[C@@H](C)[C@H](OC(=O)N2CCC(N(C)C)CC2)[C@@H]1C)C4=O [UMN74]
- MICWT [1]: 0.12 µM
- MICΔorr [2]: 0.13 µM

Structure (SMILES): CO[C@H]1/C=C/O[C@@]2(C)Oc3c(C)c(O)c4c(c3C2=O)C2=NC3(CCN(CC(C)C)CC3)NC2=C(NC(=O)/C(C)=C/C=C/[C@H](C)[C@H](O)[C@@H](C)[C@@H](O)[C@@H](C)[C@H](OC(=O)N2CCC(C)(C)C2)[C@@H]1C)C4=O [UMN75]
- MICWT [1]: 0.13 µM
- MICΔorr [2]: 0.035 µM

Structure (SMILES): CO[C@H]1/C=C/O[C@@]2(C)Oc3c(C)c(O)c4c(c3C2=O)C2=NC3(CCN(CC(C)C)CC3)NC2=C(NC(=O)/C(C)=C/C=C/[C@H](C)[C@H](O)[C@@H](C)[C@@H](O)[C@@H](C)[C@H](OC(=O)N2CCOCC2)[C@@H]1C)C4=O [UMN78]
- MICWT [1]: 0.16 µM
- MICΔorr [2]: 0.040 µM

Structure (SMILES): CO[C@H]1/C=C/O[C@@]2(C)Oc3c(C)c(O)c4c(c3C2=O)C2=NC3(CCN(CC(C)C)CC3)NC2=C(NC(=O)/C(C)=C/C=C/[C@H](C)[C@H](O)[C@@H](C)[C@@H](O)[C@@H](C)[C@H](OC(=O)N2CCCC2)[C@@H]1C)C4=O [UMN79]
- MICWT [1]: 0.18 µM
- MICΔorr [2]: 0.030 µM

Structure (SMILES): COC(=O)Cn1cc(CNC(=O)O[C@H]2[C@H](C)[C@H](O)[C@H](C)[C@@H](O)[C@@H](C)/C=C/C=C(\C)C(=O)NC3=C4NC5(CCN(CC(C)C)CC5)N=C4c4c(c(O)c(C)c5c4C(=O)[C@@](C)(O/C=C/[C@H](OC)[C@H]2C)O5)C3=O)nn1 [UMN84]
- MICWT [1]: 0.13 µM
- MICΔorr [2]: 0.15 µM
